In assay [1] the target is human vasopressin V1b receptor (Homo sapiens (Human), UniProt P47901). Description: Vasopressin V1b receptor binding assay. The following applies: membranes from CHO-K1 cells, displacement of 3H-AVP. The protocol:
The test substances were dissolved in a concentration of 5 mM in 100% DMSO and further diluted to 5×10^−4 M to 5×10^−9 M. These serial DMSO predilutions were diluted 1:10 with assay buffer. The substance concentration was further diluted 1:5 in the assay mixture resulting in 2% DMSO in the mixture. All dilutions were performed in a Biomek NX automation workstation (Beckman)
The membrane pellet was again homogenized and centrifuged as described and subsequently taken up in 50 mM Tris-HCl, pH 7.4, homogenized and stored in aliquots frozen in liquid nitrogen at −190° C.
(§1) The incubation buffer was: 50 mM Tris, 10 mM MgCl2, 0.1% BSA, pH 7.4.
All determinations were carried out as duplicate determinations. […] The liquid scintillation measurement took place in a Microbeta TriLux 12 (Wallac). Analysis:
(§2) The binding parameters were calculated by nonlinear regression in SAS.

In assay [2] the target is human vasopressin V1a receptor (Homo sapiens (Human), UniProt P37288). The assay is described as follows: Vasopressin V1a receptor binding assay. The following applies: selectivity quotient, human V1a vs human V1b receptor. The protocol: The test substances were dissolved in a concentration of 5 mM M in DMSO. Further dilution of these DMSO solutions took place as described for V1b.
Sequence of human vasopressin V1a receptor (P37288 whole entry): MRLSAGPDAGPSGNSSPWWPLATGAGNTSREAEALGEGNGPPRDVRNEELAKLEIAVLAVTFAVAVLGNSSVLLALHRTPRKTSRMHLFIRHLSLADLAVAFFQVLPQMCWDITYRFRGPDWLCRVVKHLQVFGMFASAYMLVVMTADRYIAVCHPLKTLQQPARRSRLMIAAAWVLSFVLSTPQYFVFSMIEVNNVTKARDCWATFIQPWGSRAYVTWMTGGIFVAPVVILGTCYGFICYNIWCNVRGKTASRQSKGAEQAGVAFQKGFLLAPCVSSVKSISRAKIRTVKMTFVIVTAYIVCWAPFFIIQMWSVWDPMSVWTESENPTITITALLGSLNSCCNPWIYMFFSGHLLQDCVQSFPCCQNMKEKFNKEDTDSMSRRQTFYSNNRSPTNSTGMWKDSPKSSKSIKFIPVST
The membrane pellet was again homogenized in a High-Pressure-Homogenizer, Polytec 50K at 1500 PSI (Heinemann, Germany) and subsequently taken up in 50 mM Tris-HCl, pH 7.4, homogenized and stored in aliquots frozen in liquid nitrogen at −190° C.
as §1
Duplicate determinations were carried out.
After incubation (60 minutes at room temperature), the samples were processed as described for V1b.
as §2

The record followed here is US9688678B2, “Oxindole compounds carrying a nitrogen-bound spiro substituent and use thereof for treating vasopressin-related diseases” (AbbVie Deutschland GmbH & Co. KG, priority 2014, dated 2017).

Where only a bound is given, the exact number is not on record here.

Sequence of human vasopressin V1b receptor (P47901 whole entry): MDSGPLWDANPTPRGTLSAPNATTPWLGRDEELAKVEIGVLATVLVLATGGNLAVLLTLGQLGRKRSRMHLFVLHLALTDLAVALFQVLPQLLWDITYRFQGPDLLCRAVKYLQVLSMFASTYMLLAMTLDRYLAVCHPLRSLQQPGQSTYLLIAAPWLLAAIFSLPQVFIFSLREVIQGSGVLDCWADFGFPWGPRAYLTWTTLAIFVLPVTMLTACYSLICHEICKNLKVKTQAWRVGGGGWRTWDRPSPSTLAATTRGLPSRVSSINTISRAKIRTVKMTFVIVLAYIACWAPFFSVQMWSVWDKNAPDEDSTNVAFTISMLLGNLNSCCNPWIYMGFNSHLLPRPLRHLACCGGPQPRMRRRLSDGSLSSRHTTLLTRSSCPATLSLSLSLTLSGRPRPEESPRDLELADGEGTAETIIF

`COc1ccc(S(=O)(=O)N2C(=O)C(c3cc(OC)ccc3OC)(N3CC4(CN(C5CCN(C)CC5)C4)C3)c3cc(C#N)ccc32)nc1` (racemic) [Example 21, (±)-3-(2,5-dimethoxyphenyl)-1-[(5-methoxy-2-pyridyl)sulfonyl]-3-[2-(1-methyl-4-piperidyl)-2,6-diazaspiro[3.3]heptan-6-yl]-2-oxo-indoline-5-carbonitrile] had a Ki in assay [1] of under 1 nM. In assay [2], the “Ki(h-V1a)/ Ki(h-V1b)” value is given as “+ (10-<25)”.

In turn, `COc1ccc(S(=O)(=O)N2C(=O)C(c3cccnc3OC)(N3CC4(CN(C5CCN(C)CC5)C4)C3)c3cc(C#N)ccc32)nc1` (racemic) [Example 22, (±)-3-(2-methoxy-3-pyridyl)-1-[(5-methoxy-2-pyridyl)sulfonyl]-3-[2-(1-methyl-4-piperidyl)-2,6-diazaspiro[3.3]heptan-6-yl]-2-oxo-indoline-5-carbonitrile] displayed an inhibition constant Ki in assay [1] of 1 to 10 nM. Moreover, the “Ki(h-V1a)/ Ki(h-V1b)” value in assay [2] is given as “+ (10-<25)”.

For `COc1ccc(S(=O)(=O)N2C(=O)C(c3ccccc3OC)(N3CC4(CC(N5CCN(C)CC5)C4)C3)c3cc(C#N)ccc32)nc1` (racemic) [Example 26, (±)-3-(2-methoxyphenyl)-1-[(5-methoxy-2-pyridyl)sulfonyl]-3-[2-(4-methylpiperazin-1-yl)-6-azaspiro[3.3]heptan-6-yl]-2-oxo-indoline-5-carbonitrile], the Ki in assay [1] is 1 to 10 nM. In assay [2], the “Ki(h-V1a)/ Ki(h-V1b)” value was “++ (25-75)”.

In turn, `CCOc1ncccc1C1(N2CC3(CC(N4CCN(C)CC4)C3)C2)C(=O)N(S(=O)(=O)c2ccc(OC)cn2)c2ccc(C#N)cc21` (racemic) [Example 27, (±)-3-(2-ethoxy-3-pyridyl)-1-[(5-methoxy-2-pyridyl)sulfonyl]-3-[2-(4-methylpiperazin-1-yl)-6-azaspiro[3.3]heptan-6-yl]-2-oxo-indoline-5-carbonitrile] displayed a Ki in assay [1] of 1 to 10 nM. In assay [2], the “Ki(h-V1a)/ Ki(h-V1b)” value is listed as “+++ (>75)”.

On to `CCOc1ccc(OC)cc1C1(N2CC3(CC(N4CCN(C5COC5)CC4)C3)C2)C(=O)N(S(=O)(=O)c2ccc(OC)cn2)c2ccc(C#N)cc21` (racemic) [Example 28, (±)-3-(2-ethoxy-5-methoxy-phenyl)-1-[(5-methoxy-2-pyridyl)sulfonyl]-3-[2-[4-(oxetan-3-yl)piperazin-1-yl]-6-azaspiro[3.3]heptan-6-yl]-2-oxo-indoline-5-carbonitrile], for which the Ki in assay [1] was in the range of 1 to 10 nM. For the same compound, in assay [2], the “Ki(h-V1a)/ Ki(h-V1b)” value is on record as “+++ (>75)”.

The compound `COc1ccc(S(=O)(=O)N2C(=O)C(c3cccnc3C(C)(F)F)(N3CC4(CN(C5CCN(C)CC5)C4)C3)c3cc(C#N)ccc32)nc1` (racemic) [Example 30, (±)-3-[2-(1,1-difluoroethyl)-3-pyridyl]-1-[(5-methoxy-2-pyridyl)sulfonyl]-3-[2-(1-methyl-4-piperidyl)-2,6-diazaspiro[3.3]heptan-6-yl]-2-oxo-indoline-5-carbonitrile] showed a Ki in assay [1] of 1 to 10 nM. In addition, in assay [2], the “Ki(h-V1a)/ Ki(h-V1b)” value is “+ (10-<25)”.

Take `CCOc1ccc(OC)cc1C1(N2CC3(CN(C4CCN(C)CC4)C3)C2)C(=O)N(S(=O)(=O)c2ccc(OC)cn2)c2ccc(C#N)cc21` (single isomer, unassigned; (+)) [Example 1A, (+)-3-(2-ethoxy-5-methoxy-phenyl)-1-[(5-methoxy-2-pyridyl)sulfonyl]-3-[2-(1-methyl-4-piperidyl)-2,6-diazaspiro[3.3]heptan-6-yl]-2-oxo-indoline-5-carbonitrile]: the Ki in assay [1] was under 1 nM. Also, in assay [2], the “Ki(h-V1a)/ Ki(h-V1b)” value is “+++ (>75)”.

`CCOc1ncccc1C1(N2CC3(CN(C4CCN(C)CC4)C3)C2)C(=O)N(S(=O)(=O)c2ccc(OC)cn2)c2ccc(C#N)cc21` (single isomer, unassigned; (+)) [Example 9A, (+)-3-(2-ethoxy-3-pyridyl)-1-[(5-methoxy-2-pyridyl)sulfonyl]-3-[2-(1-methyl-4-piperidyl)-2,6-diazaspiro[3.3]heptan-6-yl]-2-oxo-indoline-5-carbonitrile] returned a Ki in assay [1] of under 1 nM. The “Ki(h-V1a)/ Ki(h-V1b)” value in assay [2] was “+++ (>75)”.

`CCOc1ccc(OC)cc1C1(N2CC3(CN(C4CCN(C5COC5)CC4)C3)C2)C(=O)N(S(=O)(=O)c2ccc(OC)cn2)c2ccc(C#N)cc21` (single isomer, unassigned; (+)) [Example 11, (+)-3-(2-ethoxy-5-methoxyphenyl)-1-((5-methoxypyridin-2-yl)sulfonyl)-3-(6-(1-(oxetan-3-yl)piperidin-4-yl)-2,6-diazaspiro[3.3]heptan-2-yl)-2-oxoindoline-5-carbonitrile] yielded a Ki in assay [1] of under 1 nM. Moreover, the “Ki(h-V1a)/ Ki(h-V1b)” value in assay [2] is on record as “+++ (>75)”.

Turning to `CCOc1ccc(OC)cc1C1(N2CC3(CC(N4CCN(C)CC4)C3)C2)C(=O)N(S(=O)(=O)c2ccc(OC)cn2)c2ccc(C#N)cc21` (single isomer, unassigned; (+)) [Example 17B, (+)-3-(2-ethoxy-5-methoxy-phenyl)-1-[(5-methoxy-2-pyridyl)sulfonyl]-3-[2-(4-methylpiperazin-1-yl)-6-azaspiro[3.3]heptan-6-yl]-2-oxo-indoline-5-carbonitrile], the inhibitory constant (Ki) in assay [1] was under 1 nM. The “Ki(h-V1a)/ Ki(h-V1b)” value in assay [2] is reported as “+++ (>75)”.

Compound `COc1ccc(S(=O)(=O)N2C(=O)C(c3ccccc3OC)(N3CC4(CN(C5CCN(C)CC5)C4)C3)c3cc(C#N)ccc32)nc1` (single isomer, unassigned; (+)) [Example 18A, (+)-3-(2-methoxyphenyl)-1-[(5-methoxy-2-pyridyl)sulfonyl]-3-[2-(1-methyl-4-piperidyl)-2,6-diazaspiro[3.3]heptan-6-yl]-2-oxo-indoline-5-carbonitrile] came in with a Ki in assay [1] of under 1 nM. Besides, the “Ki(h-V1a)/ Ki(h-V1b)” value in assay [2] is “+ (10-<25)”.

In assay [1], `COc1ccc(S(=O)(=O)N2C(=O)C(c3ccccc3OC)(N3CC4(CN(C5CCN(C6COC6)CC5)C4)C3)c3cc(C#N)ccc32)nc1` (single isomer, unassigned; (+)) [Example 23, (+)-3-(2-methoxyphenyl)-1-[(5-methoxy-2-pyridyl)sulfonyl]-3-[2-[1-(oxetan-3-yl)-4-piperidyl]-2,6-diazaspiro[3.3]heptan-6-yl]-2-oxo-indoline-5-carbonitrile] had a Ki of 1 to 10 nM. Further, the “Ki(h-V1a)/ Ki(h-V1b)” value in assay [2] is on record as “+ (10-<25)”.

Consider `CCOc1ccc(OC)cc1C1(N2CC3(CN(c4ccnc(C)c4)C3)C2)C(=O)N(S(=O)(=O)c2ccc(OC)cc2OC)c2ccc(C#N)cc21` (single isomer, unassigned; (+)) [Example 24, (+)-1-(2,4-dimethoxyphenyl)sulfonyl-3-(2-ethoxy-5-methoxy-phenyl)-3-[2-(2-methyl-4-pyridyl)-2,6-diazaspiro[3.3]heptan-6-yl]-2-oxo-indoline-5-carbonitrile], for which, in assay [1], the Ki fell in the range of 10 to 100 nM. Further, the “Ki(h-V1a)/ Ki(h-V1b)” value in assay [2] is on record as “+++ (>75)”.

With `CCOc1ccc(OC)cc1C1(N2CC3(CN(c4ccnc(C)c4)C3)C2)C(=O)N(S(=O)(=O)c2ccc(OC)cn2)c2ccc(C#N)cc21` (single isomer, unassigned; (+)) [Example 25, (+)-3-(2-ethoxy-5-methoxy-phenyl)-1-[(5-methoxy-2-pyridyl)sulfonyl]-3-[2-(2-methyl-4-pyridyl)-2,6-diazaspiro[3.3]heptan-6-yl]-2-oxo-indoline-5-carbonitrile], the Ki in assay [1] is under 1 nM. In assay [2], the “Ki(h-V1a)/ Ki(h-V1b)” value is reported as “+++ (>75)”.
